Experiments:
Assay type in all cases: physicochemical
[1] = Solubility test in propylene glycol monomethyl ether acetate; details: 23° C., ultrasonic waves 30 minutes, amount of complete dissolution
Method: The solubility was evaluated by precisely weighing the compound into a test tube, adding propylene glycol monomethyl ether acetate at 23° C. so as to attain a predetermined concentration, applying ultrasonic waves for 30 minutes in an ultrasonic cleaner, then visually observing the subsequent state of the fluid, determining the concentration of the amount of complete dissolution, and conducting evaluation according to the following criteria.
A: 5.0% by mass Amount of dissolution
B: 3.0% by mass Amount of dissolution <5.0% by mass
C: Amount of dissolution <3.0% by mass

[2] = Refractive index of optical member forming film (spectroscopic ellipsometer); details: wavelength 633 nm, film thickness 1000 nm, baked at 110° C. for 60 seconds
Method: (§1) The compound was dissolved at 5% by mass in propylene glycol methyl ether to prepare an optical member forming material. Next, a silicon substrate was spin coated with the optical member forming material, and then baked at 110° C. for 60 seconds to form an optical member forming film with a film thickness of 1000 nm.
(§2) Subsequently, the refractive index and transparency tests at a wavelength of 633 nm were conducted using a vacuum ultraviolet variable angle spectroscopic ellipsometer (VUV-VASE) manufactured by J. A. Woollam Co., Inc. The refractive index and the transparency were evaluated according to the following criteria.
A: The refractive index was 1.65 or more.
C: The refractive index was less than 1.65.

[3] = Transparency (absorption constant) of optical member forming film; details: wavelength 633 nm, film thickness 1000 nm, baked at 110° C. for 60 seconds
Method: as §1, §2
A: The absorption constant was less than 0.03.
B: The absorption constant was 0.03 or more and less than 0.05.
C: The absorption constant was 0.05 or more.

[4] = Film heat resistance; parameters: key: A: No defect in the film was visually observed.; C: Defects in the film were visually observed (including disappearance of the film); details: film baked at 110° C. for 5 minutes, visual observation
Method: as §1
The optical member forming film obtained as described above was baked at 110° C. for 5 minutes, and evaluation of film heat resistance was carried out according to the following criteria.
A: No defect in the film was visually observed.
C: Defects in the film were visually observed (including disappearance of the film).

Row | Structure (SMILES) | Solubility [1] | Refractive index [2] | Absorption constant [3] | Film heat resistance [4]
1 | CC(C)Cc1ccc(C2c3c(ccc4cc(O)ccc34)Oc3ccc4cc(O)ccc4c32)cc1 [XBisN 2] | A (5.0% by mass Amount of dissolution) | A (The refractive index was 1.65 or more.) | A (The absorption constant was less than 0.03.) | A
2 | Oc1ccc2c3c(ccc2c1)Oc1ccc2cc(O)ccc2c1C3c1ccc(C2CCCCC2)cc1 [XBisN-5] | A (5.0% by mass Amount of dissolution) | A (The refractive index was 1.65 or more.) | A (The absorption constant was less than 0.03.) | A
3 | Oc1ccc(C(c2ccc(-c3ccccc3)cc2)c2ccc(O)cc2O)c(O)c1 [Example P-5] | A (5.0% by mass Amount of dissolution) | A (The refractive index was 1.65 or more.) | A (The absorption constant was less than 0.03.) | A
4 | Oc1ccc(C(c2ccc(-c3ccccc3)cc2)c2ccc(O)c(-c3ccccc3)c2)cc1-c1ccccc1 [BiP-1] | A (5.0% by mass Amount of dissolution) | A (The refractive index was 1.65 or more.) | A (The absorption constant was less than 0.03.) | A
5 | Oc1ccc(C(c2ccccc2)c2ccc(O)cc2O)c(O)c1 [Example P-6] | A (5.0% by mass Amount of dissolution) | A (The refractive index was 1.65 or more.) | A (The absorption constant was less than 0.03.) | A
6 | Oc1ccc(C(c2ccc(C3CCCCC3)cc2)c2ccc(O)cc2O)c(O)c1 [Example P-7] | A (5.0% by mass Amount of dissolution) | A (The refractive index was 1.65 or more.) | A (The absorption constant was less than 0.03.) | A
7 | CCCc1ccc(C2c3c(ccc4cc(O)ccc34)Oc3ccc4cc(O)ccc4c32)cc1 [XBisN-3] | A (5.0% by mass Amount of dissolution) | A (The refractive index was 1.65 or more.) | A (The absorption constant was less than 0.03.) | A
8 | CCCc1ccc(C2c3c(ccc4ccc(O)cc34)Oc3ccc4ccc(O)cc4c32)cc1 [XBisN-7] | A (5.0% by mass Amount of dissolution) | A (The refractive index was 1.65 or more.) | A (The absorption constant was less than 0.03.) | A
9 | Oc1ccc(C2c3c(ccc4cc(O)ccc34)Oc3ccc4cc(O)ccc4c32)cc1 [XBisN-4] | A (5.0% by mass Amount of dissolution) | A (The refractive index was 1.65 or more.) | A (The absorption constant was less than 0.03.) | A
10 | Oc1ccc2c3c(ccc2c1)Oc1ccc2cc(O)ccc2c1C3c1ccc(-c2ccccc2)cc1 [XiN-1] | A (5.0% by mass Amount of dissolution) | A (The refractive index was 1.65 or more.) | A (The absorption constant was less than 0.03.) | A
11 | Oc1ccc(C2c3c(ccc4ccc(O)cc34)Oc3ccc4ccc(O)cc4c32)cc1 [XBisN-8] | A (5.0% by mass Amount of dissolution) | A (The refractive index was 1.65 or more.) | A (The absorption constant was less than 0.03.) | A
12 | Oc1ccc2c3c(ccc2c1)Oc1ccc2cc(O)ccc2c1C3c1ccc(-c2ccc(C3c4c(ccc5cc(O)ccc45)Oc4ccc5cc(O)ccc5c43)cc2)cc1 [XiN-3] | A (5.0% by mass Amount of dissolution) | A (The refractive index was 1.65 or more.) | A (The absorption constant was less than 0.03.) | A
13 | Oc1ccc(-c2ccc(O)c(C(c3ccc(-c4ccccc4)cc3)c3cc(-c4ccc(O)cc4)ccc3O)c2)cc1 [BiP-2] | A (5.0% by mass Amount of dissolution) | A (The refractive index was 1.65 or more.) | A (The absorption constant was less than 0.03.) | A
14 | CC(C)Cc1ccc(C2c3c(ccc4ccc(O)cc34)Oc3ccc4ccc(O)cc4c32)cc1 [XBisN-6] | A (5.0% by mass Amount of dissolution) | A (The refractive index was 1.65 or more.) | A (The absorption constant was less than 0.03.) | A
15 | Oc1ccc2ccc3c(c2c1)C(c1ccc(C2CCCCC2)cc1)c1c(ccc2ccc(O)cc12)O3 [XBisN-9] | A (5.0% by mass Amount of dissolution) | A (The refractive index was 1.65 or more.) | A (The absorption constant was less than 0.03.) | A
16 | Oc1ccc2ccc3c(c2c1)C(c1ccc(-c2ccc(C4c5c(ccc6ccc(O)cc56)Oc5ccc6ccc(O)cc6c54)cc2)cc1)c1c(ccc2ccc(O)cc12)O3 [XBiN 3] | A (5.0% by mass Amount of dissolution) | A (The refractive index was 1.65 or more.) | A (The absorption constant was less than 0.03.) | A
